One block for each molecule: values may come before it.
What was measured:
[1] = biological target: T1, PAR2 (HT-29 cells, SLIGKV activation) (Homo sapiens, UniProt P55085); test: Ca FLIPR TETRA assay, ANTAGONIST mode, stimulation with 8 μM SLIGKV; format: cell-based; conditions: for IC50: HT-29 cells; for SLIGKV % @ concentration: @ 1.9 (μM)
T1 construct: host or cells: HT-29 cells
T1 sequence (P55085 26-397): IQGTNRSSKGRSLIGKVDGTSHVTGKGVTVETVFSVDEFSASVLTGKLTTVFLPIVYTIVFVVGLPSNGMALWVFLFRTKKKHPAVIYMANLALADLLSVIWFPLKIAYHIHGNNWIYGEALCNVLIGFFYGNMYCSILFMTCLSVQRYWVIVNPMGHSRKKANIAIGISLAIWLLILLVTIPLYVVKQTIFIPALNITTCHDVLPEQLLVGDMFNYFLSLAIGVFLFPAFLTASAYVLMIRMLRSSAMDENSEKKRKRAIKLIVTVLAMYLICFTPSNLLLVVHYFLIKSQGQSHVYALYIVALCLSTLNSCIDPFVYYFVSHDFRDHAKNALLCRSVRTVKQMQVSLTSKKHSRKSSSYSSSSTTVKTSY
Experimental: (§1) Example 60: Protocol for Testing PAR2 Compounds in ANTAGONIST Mode Using the Ca FLIPR^TETRA Assay (384 Well)
(§2) 23000 HT-29 cells (ATCC# HTB-38) were plated in 384-well black, transparent-flat bottom plates and incubated in 25 uL of 1% FBS/McCoy's media ON at 37° C. under an atmosphere of 5% CO2. The following day, 25 uL FLIPR calcium 5 Molecular Devices assay reagent (Cat: R-8186) was added. Plates were incubated at 37° C. and r. t. for 45 min and 15 min, respectively. Compounds dilutions were prepared in 100% DMSO using a Biomek FX and diluted 20-fold in HBSS and then 5.5 uL was added directly to the cells by the FLIPR^TETRA (10× dilution) using FLIPR Tetra Pipette tips, black, non-sterile, 384 Molecular Devices (Cat: 9000-0764).
(§3) A first read was performed to determine whether the test compounds on their own can activate Ca2+ responses.
(§4) The cells were incubated with the compounds for 30 min at r. t. and then read in ANTAGONIST mode in the same plate by stimulating with 6.2 uL of a fixed concentration of the activator: final concentrations: 8 μM SLIGKV, 1 U/mL Thrombin, 3.1 U/mL trypsin, or 0.6 μM UTP.

[2] = biological target: T2, PAR2 (HT-29 cells, trypsin activation) (Homo sapiens, UniProt P55085); test: Ca FLIPR TETRA assay, ANTAGONIST mode, stimulation with 3.1 U/mL trypsin; format: cell-based; conditions: for IC50: HT-29 cells
T2 construct: host or cells: HT-29 cells
T2 sequence (P55085 26-397): T1 sequence (P55085 26-397)
Experimental: as §1, §2, §3, §4

[3] = tested on: UTP-stimulated Ca2+ response in HT-29 cells; test: Ca FLIPR TETRA assay, ANTAGONIST mode, stimulation with 0.6 μM UTP; format: cell-based, human; conditions: Homo sapiens, HT-29 cells, stimulation with 0.6 μM UTP
Experimental: as §1, §2, §3, §4

[4] = tested on: Thrombin-stimulated Ca2+ response in HT-29 cells; test: Ca FLIPR TETRA assay, ANTAGONIST mode, stimulation with 1 U/mL Thrombin; format: cell-based, human; conditions: HT-29 cells, stimulation with 1 U/mL Thrombin
Experimental: as §1, §2, §3, §4

[5] = Table 8, reported compounds of WO2005/030773, JP2003286171, JP2004170323
[6] = Table 8, @ 50 μM, reported prior-art compounds
[7] = antagonist mode, stimulation with 8 μM SLIGKV

IC50 [1, 5]: 0.14 µM
IC50 [2, 5]: 17 µM
SMILES: CCOC(=O)C1CCN(C(=O)c2cc3nc(-c4ccccc4)cc(C(F)(F)F)n3n2)CC1 [Compound P-603, reference compound]

IC50 [1, 5]: 0.057 µM
IC50 [2, 5]: 0.13 µM
SMILES: CCOC(=O)C1CCCCN1C(=O)c1cc2nc(-c3ccc(Cl)cc3)cc(C(F)(F)F)n2n1 (centres unmarked) [Compound P-592, reference compound]

IC50 ([1]; Table 6, 8 μM SLIGKV): 13 µM
IC50 ([2]; Table 6, 3.1 U/mL trypsin): 19 µM
SMILES: Cc1cc(-c2ccc(F)cc2)nn2cc(C(=O)N3CCCC4(COC4)C3)nc12 [Compound I-586]

IC50 ([1]; Table 6, 8 μM SLIGKV): 23 µM
IC50 ([2]; Table 6, 3.1 U/mL trypsin): > 50 µM
SMILES: O=C(c1cn2nc(-c3ccc(F)cc3)cc(C(F)(F)F)c2n1)N1CCN(CCn2ccnc2)CC1 [Compound I-583]

IC50 [1, 5]: 0.64 µM
IC50 [2, 5]: 3.85 µM
SMILES: CCOC(=O)C1CCCCN1C(=O)c1cc2nc(-c3ccccc3)cc(C(F)(F)F)n2n1 (centres unmarked) [Compound P-604, reference compound]

IC50 ([1]; Table 6, 8 μM SLIGKV): 50 µM
IC50 ([2]; Table 6, 3.1 U/mL trypsin): > 50 µM
SMILES: N#Cc1cccnc1N1CCN(C(=O)c2cn3nc(-c4ccc(F)cc4)cc(C(F)(F)F)c3n2)CC1 [Compound I-582]

IC50 [3]: > 50 µM
IC50 ([4]; Homo sapiens): > 50 µM
IC50 ([1]; stimulation with 8 μM SLIGKV): 1.3 µM
SMILES: O=C1NCCN2CCN(C(=O)c3cn4nc(-c5ccc(F)cc5)cc(C(F)(F)F)c4n3)CC12 (centres unmarked) [Compound I-58]

IC50 [1, 5]: 0.073 µM
Trypsin % @ 50 μM [2, 6]: 50% @ 50 μM
SMILES: CCOC(=O)C1CCN(C(=O)c2cc3nc(-c4ccc(Cl)cc4)cc(C(F)(F)F)n3n2)CC1 [Compound P-605, reference compound]

IC50 [1, 5]: 37 µM
IC50 [2, 5]: > 50 µM
SMILES: O=C(O)C1CCCN(C(=O)c2cc3nc(-c4ccc(Cl)cc4)cc(C(F)(F)F)n3n2)C1 (centres unmarked) [Compound P-600, reference compound]

IC50 [3]: > 50 µM
IC50 ([4]; Homo sapiens): > 50 µM
SLIGKV % @ concentration [1]: 51% @ 1.9
SMILES: CCOC1CCN(C(=O)c2cn3nc(-c4ccc(F)cc4)cc(C(F)(F)F)c3n2)CC1 [Compound I-48]

SLIGKV % @ 50 μM [1, 6]: 67% @ 50 μM
IC50 [2, 5]: > 50 µM
SMILES: O=C(c1cc2nc(-c3ccc(Cl)cc3)cc(C(F)(F)F)n2n1)N1CCCCC1 [Compound P-593, reference compound]

IC50 [1, 5]: 31 µM
IC50 [2, 5]: > 50 µM
SMILES: CN(CCO)C(=O)c1cc2nc(-c3ccccc3)cc(C(F)(F)F)n2n1 [Compound P-602, reference compound]

IC50 [3]: > 50 µM
IC50 ([4]; Homo sapiens): > 50 µM
IC50 ([1]; stimulation with 8 μM SLIGKV): 0.68 µM
SMILES: C[C@H]1CN(C(=O)c2cn3nc(-c4ccc(F)cc4)cc(C(F)(F)F)c3n2)CCN1C(=O)c1ncc[nH]1 [Compound I-88]

IC50 [1, 5]: 9.81 µM
IC50 [2, 5]: > 50 µM
SMILES: O=C(c1cc2nc(-c3ccc(Cl)cc3)cc(C(F)(F)F)n2n1)N1CCCCCC1 [Compound P-599, reference compound]

IC50 [1, 5]: 1.73 µM
IC50 [2, 5]: 19.2 µM
SMILES: CC1CCCCN1C(=O)c1cc2nc(-c3ccccc3)cc(C(F)(F)F)n2n1 (centres unmarked) [Compound P-595, reference compound]

IC50 [3]: > 50 µM
IC50 ([4]; Homo sapiens): > 50 µM
IC50 ([1]; stimulation with 8 μM SLIGKV): 0.021 µM
SMILES: C[C@H]1CN(C(=O)c2cn3nc(-c4ccc(F)cc4)cc(C(F)(F)F)c3n2)CCN1C(=O)c1cc(-c2ccccc2)n[nH]1 [Compound I-87]

IC50 ([4]; antagonist mode): > 1 µM
IC50 [1, 7]: 0.0008 µM
IC50 ([2]; antagonist mode, stimulation with 3.1 U/mL trypsin): 0.0009 µM
SMILES: COC(=O)C1CC(C(=O)N2CCN(C(=O)c3cn4nc(-c5ccc(F)cc5)cc(C(C)(C)C)c4n3)C(C)(C)C2)C1 (centres unmarked) [Compound I-538]

IC50 [3]: > 50 µM
IC50 ([4]; Homo sapiens): > 50 µM
SLIGKV % @ concentration [1]: 56% @ 1.9
SMILES: C[C@H]1CCCCN1C(=O)c1cn2nc(-c3ccc(F)cc3)cc(C(F)(F)F)c2n1 [Compound I-65]

IC50 ([3]; antagonist mode): > 1 µM
IC50 ([4]; Homo sapiens, antagonist mode): > 1 µM
IC50 [1, 7]: 0.79 µM
SMILES: Cc1cc(F)ccc1-c1cc(C(C)C)c2nc(C(=O)N3CCNC(=O)C3(C)C)cn2n1 [Compound I-478]

IC50 ([1]; Table 6, 8 μM SLIGKV): 17 µM
IC50 ([2]; Table 6, 3.1 U/mL trypsin): 41 µM
SMILES: CC(C)c1cc(-c2ccc(F)cc2)nn2cc(C(=O)N3CCNC(=O)C3)nc12 [Compound I-591]

From patent publication US20190119282A1, “IMIDAZOPYRIDAZINES USEFUL AS INHIBITORS OF THE PAR-2 SIGNALING PATHWAY” (Vertex Pharmaceuticals Incorporated, priority 2013, published 2019)
